Type in all cases: cell-based
One assay relates to melanoma cell lines. Description: NCI 60 human tumor cell line screen, melanoma. To be noted: Homo sapiens, arithmetic mean of two to nine cancer cell lines, read-out: Inhibitory concentration GI50, melanoma. The text has this:
(§1) Selected compounds were submitted for testing in the organ-specific panel of human tumor cell lines at the National Cancer Institute, Bethesda, Md. This screen utilized 60 human tumor cell lines, representing leukemia, melanoma, and cancers of the lung, colon, brain, ovary, kidney, prostate, and breast (Boyd, M. R., “Status of the NCl preclinical antitumor drug discovery screen”. In Principles and practice of oncology updates; De Vita, V. T., Jr. Hellman, S., Rosenberg, S. A., Eds.; Lippincott: Philadelphia, Pa., 1989; Vol. 3, pp 1-12).
(§2) The MG MID value is the average of the GI50 values for all the cell lines tested for drug concentrations in the range of 10^−4-10^−8 M (See website domain: dtp.nci.nih.gov/dtp).

Assay [1] relates to human colorectal carcinoma HT29. Description: Western blot of signal transduction pathways in HT29 cells. To be noted: HT29, IC50 dose.
The test system is the same in assay [2]. Description: Annexin-V FACS analysis of apoptosis. The note with it: FIGS. 3 and 4, treated versus control cells. How it is done: This activation was through ERK signaling and not through JNK signaling, resulting in PARP cleavage after 16 h. […] Activation of NFkB (p50) was also observed following treatment with these compounds.
The next assay concerns breast cancer cell lines. The assay is described as follows: NCI 60 human tumor cell line screen, breast. The note with it: Homo sapiens, arithmetic mean of two to nine cancer cell lines, read-out: Inhibitory concentration GI50, breast.
Text: as §1, §2

The subject of assay [3] is ovarian cancer cell lines. The assay is described as follows: NCI 60 human tumor cell line screen, ovarian. The note with it: Homo sapiens, arithmetic mean of two to nine cancer cell lines, read-out: Inhibitory concentration GI50, ovarian.
Text: as §1, §2

Another assay relates to HL60-VCR. Description: MTS cytotoxicity on MDR tumor cells, HL60-VCR. The note with it: HL60/VCR, Vincristine (VCR) resistant, 72 hr incubation.
For assay [4], the system named is human cervical adenocarcinoma HeLa. Description: MTS cytotoxicity assay, HeLa. The note with it: Homo sapiens, HeLa, 48 h incubation. The method, then:
(§3) In order to obtain information about the growth-inhibiting action of hydrazones reported in the present invention on tumor cells, growth inhibition was assessed for the following human tumor cell lines: human myelogenous leukemia K562, human cervical adenocarcinoma HeLa, human colon adenocarcinoma Caco-2, human colon carcinoma HT-29, human colon carcinoma HCT-15, and human breast carcinoma MCF-7.
(§4) The K562, HeLa, HT-29, HCT-15, Caco-2, and MCF-7 cell lines were obtained from the American type Culture Collection (ATCC, Manassas, Va.). K562 cells were maintained in RPMI 1640 medium (Gibco/Life Technologies, Gaithersburg, Md.) containing 10% heat-inactivated fetal bovine serum (FBS) (Atlanta Biologicals, Atlanta, Ga.) and 10000 U/L penicillin and 50 mg/L streptomycin. HeLa, HT-29, HCT-15, Caco-2 and MCF-7 cells were maintained in MEM with Earl's balanced salts, 10% FBS, penicillin, and streptomycin as above. Logarithmically growing HT-29, Caco-2, and MCF-7 cells were incubated with 0.05% trypsin containing 1 mM EDTA at 37° C. for about 5 min until cells were nonadherent and formed a single cell suspension. Trypsin activity was neutralized by adding 20-fold excess of the serum-containing medium. Cells were cultured at 37° C. in an atmosphere of air and 5% CO2.
(§5) Cytotoxicity assays were conducted by tetrazolium reduction of 3-(4,5-dimethylthiazol-2-yl)-5-(3-carboxymethoxyphenyl)-2-(4-sulfophenyl)-2H-tetrazolium (MTS) with N-methylphenazonium methyl sulfate (PMS) (CellTiter Assay, Promega, Madison, Wis.). Logarithmically growing cells were plated in 0.1 mL aliquots in 96-well microtiter plates. Cells were plated at an initial density of about 5000 cells/mL and allowed to acclimatize for 24 h. Cell suspensions were treated with various dilutions of compounds in triplicate, mixed well, and allowed to incubate for 48 h at 37° C. in an atmosphere of air and 5% CO2. To the cell suspension was added 20 μL of tetrazolium reagent, the mixture was incubated for 2 h at 37° C. in an atmosphere of air and 5% CO2, and absorbance at 490 nm was read by microplate reader. Control plates with serial dilutions of cell types were counted as a control for the assay. In all cases, controls indicated a linear response versus cell number, R^2≧0.99.

The test system of another assay is renal cancer cell lines. Description: NCI 60 human tumor cell line screen, renal. To be noted: Homo sapiens, arithmetic mean of two to nine cancer cell lines, read-out: Inhibitory concentration GI50, renal.
Text: as §1, §2

Assay [5] concerns human colon adenocarcinoma Caco-2. The assay is described as follows: MTS cytotoxicity assay, Caco-2. To be noted: Homo sapiens, Caco-2, 48 h incubation. The method, then: as §3, §4, §5

The structures appear in SMILES notation.

Regarding `C(=NNc1ncnc2[nH]cnc12)c1ccccn1` [I-18, 6-(2-(Pyridin-2-ylmethylene)hydrazinyl)-9H-purine], the GI50 was determined as 753 nM in the assay with melanoma cell lines; 1150 nM in the assay on breast cancer cell lines; 629 nM in assay [3]; 700 nM with HL60-VCR; 1900 nM in assay [4]; 1480 nM with renal cancer cell lines. The compound also gave a GI50 in [5] of 2200 nM. The “Activation of NFkB (p50)” value in assay [1] is on record as “observed”. Also, the “Apoptosis (Annexin-V, FACS analysis)” value in assay [2] is given as “Apoptosis was also established”.

The values are drawn from patent US9133230B2, “Hydrazone derivatives having potent antitumor activity toward multi-drug resistant tumor cells” (THE UNITED STATES OF AMERICA AS REPRESENTED BY THE …, priority 2011, dated 2015).
